Source: patent US7148020B2, “Triple polypeptide complexes” (Arexis AB, priority 2001, dated 2006)
Ends that are not written are not given here.

Assays:
HCQ.4 hybridoma = assay: Detection of transgenic CII from skin grafts by T cell hybridoma, CTLL assay; type: cell-based, mice; settings: HCQ.4, specific for non-glycosylated CII(256-270)
Experimental: (§1) T cell hybridomas HCQ.4 and HCQ.10, specific for CII(256-270) without posttranslational modification and with glucose on hydroxylysin at position K264 respectively, were used to detect transgenic […] prepared from TSC or recipients grafts at the end of arthritis experiments as described earlier (Michaelsson et al., J. Exp. Med., 180:745–749 (1994) and Corthay et al., Eur. J. Immunol., 28:2580–2590 (1998)). Briefly, syngeneic spleen cells were incubated with titrated amount of antigen at 5×10^5/mL together with the hybridoma cells at 5×10^4/mL. The interleukin-2 production was detected after 24 hours by transferring 100 μL of the supernatant to new plates. Plates were snap-frozen to avoid any contamination of living cells before addition of 10^4 CTLL/well. CTLL were incubated for 24 hours before thymidine-labeling and harvesting 15–18 hours later.

HCQ.10 hybridoma = assay: as above; type: cell-based, mice; settings: HCQ.10, specific for glycosylated CII(256-270)
Experimental: as §1

[1] = tested on: HCQ.4 T cell hybridoma cells; assay: T cell hybridoma stimulation with Langerhans cells, IL-2 by CTLL assay; type: cell-based, mice; settings: 10 μg/mL, Langerhans cells as antigen presenting cells, 24 hours (FIG. 3)
Experimental: Langerhans cells (dendritic cells) were prepared from ear skin of B10Q×DBA/1 mice and purified with selection on N418 marker. Once purified, Langerhans cells were mixed with HCQ.4 T cell hybridoma cells (1×10^5 cell/well), and the mixture incubated with media containing 10 μg/mL of [(Gly-Pro-Hyp)5-CII(259-274)-(Gly-Pro-Hyp)2]3LAhx (a linked polypeptide), CII(259-270) (an unlinked polypeptide), or native rat CII for 24 hours. After the 24-hour incubation, 0.5 μCi ^3H-thymidine/well (Radiochemical Centre, Amersham,UK) was added, and the cells incubated for an additional 18 hours. After this incubation, the supernatants were assayed for IL-2 content using a CTLL assay. Results were presented as means of duplicates.

[2] = tested on: monoclonal anti-CII antibody M2 76; assay: ELISA, coated polypeptide complexes capture anti-CII monoclonal antibody; type: binding; settings: monoclonal antibody M2 76, Mouse; coated wells
From the text: (§2) Triple helical polypeptide complexes [(Gly-Pro-Hyp)5-CII(358-366Hyp-369)-(Gly-Pro-Hyp)2]3LAhx, [(Gly-Pro-Hyp)5-CII(259-273Hyp-274)-(Gly-Pro-Hyp)2]3LAhx, [(Gly-Pro-Hyp)5-CII(259-273Hyp-274)-CII(359-366Hyp)-(Gly-Pro-Hyp)2]3LAhx, [(Gly-Pro-Hyp)5-CII(494-504Hyp)-(Gly-Pro-Hyp)2]3LAhx, and [(Gly-Pro-Hyp)5-CII(551-552Hyp-564)-(Gly-Pro-Hyp)2]3LAhx were used in an ELISA to detect anti-CII-antibodies. Specifically, Immulon2 HB (Dynex/Technologies Inc., USA) plates were coated with [(Gly-Pro-Hyp)5-CII(358-366Hyp-369)-(Gly-Pro-Hyp)2]3LAhx, [(Gly-Pro-Hyp)5-CII(259-273Hyp-274)-(Gly-Pro-Hyp)2]3LAhx, [(Gly-Pro-Hyp)5-CII(259-273Hyp-274)-CII(359-366Hyp)-(Gly-Pro-Hyp)2]3LAhx, [(Gly-Pro-Hyp)5-CII(494-504Hyp)-(Gly-Pro-Hyp)2]3LAhx, and [(Gly-Pro-Hyp)5-CII(551-552Hyp-564)-(Gly-Pro-Hyp)2]3LAhx in a volume of 50 μL/well and at a concentration of 5 μg/mL. Wells coated with native rat CII (rCII; 10 μg/mL) were used as a positive control, while negative controls included wells coated with native rat type I collagen (rCI; 10 μg/mL) and wells coated with phosphate-buffered saline (PBS; pH 7.4).
(§3) After coating, the plates were incubated for at least one hour in a humid chamber at 4° C. After incubation, the plates were washed three times with PBS using an automatic microtiter plate-washing device (Skan Washer 300, Skatron instruments) and incubated with 50 μL/well of bovine serum albumin (BSA; Sigma, St. Louis, Mo.; 10 mg/mL in PBS) for two hours at 20° C. The wells were washed five times with PBS using ELISA washing equipment (Skatron, Norway) and incubated with a monoclonal anti-CII antibody (50 μL/well in titrated concentrations) for two hours at 20° C. After this two hour incubation, the plates were washed with PBS-Tween and incubated with a secondary enzyme-labeled antibody for two hours at 20° C. For detection of mouse antibodies, peroxidase labeled goat anti-mouse IgG (H+L) (Jackson ImmunoResearch Laboratories, Inc., USA) were used. For detection of rat antibodies, peroxidase labeled goat anti-rat IgG (H+L) (Jackson ImmunoResearch Laboratories, Inc. USA) were used.
(§4) After washing the wells with PBS, the assay was developed using the ABTS system (Boehringer-Mannheim, Mannheim, Germany), and the absorbance levels determined at 405 nm (ELISA reader, Titertek). Titers and concentrations of the monoclonal antibodies were calculated using limiting dilution (ELISA software: HyperELISA 3.0).

[3] = tested on: monoclonal anti-CII antibody M2 84; assay: as above; type: binding; settings: monoclonal antibody M2 84, Mouse; coated wells
From the text: as §2, §3, §4

[4] = tested on: monoclonal anti-CII antibody 122.9; assay: as above; type: binding; settings: monoclonal antibody 122.9, Rat; coated wells
From the text: as §2, §3, §4

[5] = tested on: monoclonal anti-CII antibody 145.322; assay: as above; type: binding; settings: monoclonal antibody 145.322, Rat; coated wells
From the text: as §2, §3, §4

[6] = tested on: monoclonal anti-CII antibody 126.35; assay: as above; type: binding; settings: monoclonal antibody 126.35, Rat; coated wells
From the text: as §2, §3, §4

[7] = tested on: monoclonal anti-CII antibody EB63; assay: as above; type: binding; settings: monoclonal antibody EB63, Mouse; coated wells
From the text: as §2, §3, §4

[8] = tested on: monoclonal anti-CII antibody M2 87; assay: as above; type: binding; settings: monoclonal antibody M2 87, Mouse; coated wells
From the text: as §2, §3, §4

[9] = tested on: monoclonal anti-CII antibody M2 88; assay: as above; type: binding; settings: monoclonal antibody M2 88, Mouse; coated wells
From the text: as §2, §3, §4

[10] = tested on: monoclonal anti-CII antibody 146.50; assay: as above; type: binding; settings: monoclonal antibody 146.50, Rat; coated wells
From the text: as §2, §3, §4

[11] = tested on: monoclonal anti-CII antibody EB2; assay: as above; type: binding; settings: monoclonal antibody EB2, Mouse; coated wells
From the text: as §2, §3, §4

[12] = tested on: monoclonal anti-CII antibody M2 139; assay: as above; type: binding; settings: monoclonal antibody M2 139, Mouse; coated wells
From the text: as §2, §3, §4

[13] = tested on: monoclonal anti-CII antibody 126.30; assay: as above; type: binding; settings: monoclonal antibody 126.30, Rat; coated wells
From the text: as §2, §3, §4

[14] = tested on: monoclonal anti-CII antibody 125.5; assay: as above; type: binding; settings: monoclonal antibody 125.5, Rat; coated wells
From the text: as §2, §3, §4

[15] = tested on: CII(256-270)/Aq-specific T cell hybridoma cells; assay: Antigen presentation, IL-2 production of T cell hybridoma measured by ELISA; type: cell-based, mice
Experimental: Antigen-presentation of polypeptides and triple helical polypeptide complexes was studied using A^q-restricted HDQ.9, A^q-restricted HRC.2, A^q-restricted HCQ.4, and DR4-restricted 1259 T cell hybridomas. Briefly, A^q-restricted spleen cells were derived from DBA/1 mice, and DR4-restricted spleen cells were derived from DR4^+/_H-2^−/_mice. T cell hybridoma cells (5×10^4 cells/well) were incubated with polypeptides and polypeptide complexes (20 μg/mL, dilution 1:5) and 5×10^5 spleen cells per well (normal or fixed in 1% paraformaldehyde for 15 min at room temperature) in a volume of 200 μL in 96-well plates for 24 hours. The reactivity of the hybridoma cells toward the polypeptides and triple helical polypeptide complexes, reflected by IL-2 production, was measured by ELISA using europium-labeled streptavidin (WALLAC, Turku).

[16] = tested on: C3H.Q mice, arthritis induced with rat CII; assay: Vaccination of adult mice, arthritis induced with rat CII; type: in vivo
Experimental: Male and female C3H.Q mice were used in two separate experiments. In each experiment, adult mice 8–12 weeks old were injected intradermally at the base of the tail with CII(256-270) (unlinked polypeptides), [(Gly-Pro-Hyp)5-CII(259-274)-(Gly-Pro-Hyp)2]3LAhx (linked polypeptides), or PBS. Specifically, each mouse received 100 μL of PBS or 100 μL of polypeptide (100 μg) emulsified in incomplete Freund's adjuvant.
After three weeks, the mice were treated with rat CII emulsified in complete Freund's adjuvant. Specifically, each mouse received 100 μL containing 100 μg of rat CII injected intradermally around the base of the tail. […] In addition, five weeks after treating the mice with rat CII, blood samples were collected to determine the antibody response.

CD4+ T cells = assay: IL-2 response of CD4+ T cells upon in vitro stimulation, two-color flow cytometry; type: cell-based, human; settings: 10 μg per mL plus anti-CD28
C1 mAb and M2.139 mAb = assay: Immunoreactivity of conformation dependent monoclonal antibodies on coated microtiter wells; type: binding, mouse; settings: compared with native CII (FIG. 8)
Experimental: Microtiter plates (Nunc, Wiesbaden, Germany) were coated overnight with [(Gly-Pro-Hyp)5-CII(358-366Hyp-369)-(Gly-Pro-Hyp)2]3LAhx or [(Gly-Pro-Hyp)5-CII(551-552Hyp-564)-(Gly-Pro-Hyp)2]3LAhx at 4° C. and blocked with 2% BSA in phosphate buffered saline (PBS, pH 7.4) for one hour. The presentation of a native collagen conformation on the plastic surface of the microtiter well was controlled by the immunoreactivity of two mouse monoclonal antibodies (C1 mAb having specificity for the CII(358-369) region and M2.139 mAb having specificity for the CII(551-564) region) that recognize the CII epitopes in a conformation dependent manner as confirmed in FIG. 8. Identical titration curves for the native CII and the synthetic polypeptides indicate that the synthetic polypeptides have a perfect image of the conformational epitope. […] Heat denaturation was achieved by heating the CII polypeptide to greater than 50° C. for two hours prior to the coating of the microtiter wells.

## whole CII protein: whole type II collagen protein
HCQ.4 hybridoma
  stimulation of hybridoma (IL-2, CTLL assay): respond
HCQ.10 hybridoma
  stimulation of hybridoma (IL-2, CTLL assay): respond

## rCII: native rat type II collagen, positive control
[1]
  stimulation of T cells (IL-2 content, CTLL assay, CPM): did not
[2]
  end point titer value in ng antibody/mL: 10 ng antibody/mL
[3]
  end point titer value in ng antibody/mL: 10 ng antibody/mL
[4]
  end point titer value in ng antibody/mL: 10 ng antibody/mL
[5]
  end point titer value in ng antibody/mL: 100 ng antibody/mL
[6]
  end point titer value in ng antibody/mL: 10 ng antibody/mL
[7]
  end point titer value in ng antibody/mL: 100 ng antibody/mL
[8]
  end point titer value in ng antibody/mL: 10 ng antibody/mL
[9]
  end point titer value in ng antibody/mL: 10 ng antibody/mL
[10]
  end point titer value in ng antibody/mL: 100 ng antibody/mL
[11]
  end point titer value in ng antibody/mL: <10 ng antibody/mL
[12]
  end point titer value in ng antibody/mL: 10 ng antibody/mL
[13]
  end point titer value in ng antibody/mL: 10 ng antibody/mL
[14]
  end point titer value in ng antibody/mL: 10 ng antibody/mL

## GEPGIAGFKGEQGPK [CII(256-270), non-glycosylated, unlinked polypeptide]
[15]; non-fixed APC
  stimulation of T cell hybridoma cells (IL-2 production): potent stimulators
[15]; presented by formalin-fixed spleen cells (FIGS. 25–26)
  stimulation of T cell hybridoma cells (IL-2 production): stimulated

## [(Gly-Pro-Hyp)5-CII(259-274)-(Gly-Pro-Hyp)2]3LAhx [linked polypeptide composition]
[1]
  stimulation of T cells (IL-2 content, CTLL assay, CPM): stimulated T cells
[16]; adult C3H.Q mice, 100 μg intradermally in incomplete Freund's adjuvant (FIG. 6)
  development of arthritis: abrogated development of arthritis
[16]; five weeks after treating the mice with rat CII
  antibody response: lower

## tetanus toxoid [TT]
CD4+ T cells; patient RA 1
  IL-2 response of CD4+ T cells (percent of IL-2-producing CD4+ T cells): 0.38%
CD4+ T cells; patient RA 2
  IL-2 response of CD4+ T cells (percent of IL-2-producing CD4+ T cells): 0.61%
CD4+ T cells; patient RA 3
  IL-2 response of CD4+ T cells (percent of IL-2-producing CD4+ T cells): 0.20%

## heat denatured CII: CII polypeptide heated to greater than 50° C. for two hours prior to coating
C1 mAb and M2.139 mAb
  binding of C1 mAb / M2.139 mAb, titration curves: does not bind
